This assay has as its target T1, LXRβ (Homo sapiens, UniProt P55055).
T1 construct: Co-transfection expression plasmids, comprising full-length LXRα (pCMX-h LXRα[…] or LXRβ (pCMX-hLXRβ)); expressed in transfected cells; host or cells: CV-1 African Green Monkey Kidney Cells
T1 sequence (P55055 1-460): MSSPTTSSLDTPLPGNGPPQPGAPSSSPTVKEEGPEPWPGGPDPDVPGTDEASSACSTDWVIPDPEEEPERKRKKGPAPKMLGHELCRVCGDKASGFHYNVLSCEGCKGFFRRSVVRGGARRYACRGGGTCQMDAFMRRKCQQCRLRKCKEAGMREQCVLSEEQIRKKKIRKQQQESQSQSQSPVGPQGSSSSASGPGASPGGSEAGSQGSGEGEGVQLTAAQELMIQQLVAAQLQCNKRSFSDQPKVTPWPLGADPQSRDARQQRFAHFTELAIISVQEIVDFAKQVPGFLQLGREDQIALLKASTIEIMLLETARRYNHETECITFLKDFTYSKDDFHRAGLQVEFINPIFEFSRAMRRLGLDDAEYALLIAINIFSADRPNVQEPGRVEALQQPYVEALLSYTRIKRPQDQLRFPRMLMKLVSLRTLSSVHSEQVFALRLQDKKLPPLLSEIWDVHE
T1 sequence (P19793 1-462 partner): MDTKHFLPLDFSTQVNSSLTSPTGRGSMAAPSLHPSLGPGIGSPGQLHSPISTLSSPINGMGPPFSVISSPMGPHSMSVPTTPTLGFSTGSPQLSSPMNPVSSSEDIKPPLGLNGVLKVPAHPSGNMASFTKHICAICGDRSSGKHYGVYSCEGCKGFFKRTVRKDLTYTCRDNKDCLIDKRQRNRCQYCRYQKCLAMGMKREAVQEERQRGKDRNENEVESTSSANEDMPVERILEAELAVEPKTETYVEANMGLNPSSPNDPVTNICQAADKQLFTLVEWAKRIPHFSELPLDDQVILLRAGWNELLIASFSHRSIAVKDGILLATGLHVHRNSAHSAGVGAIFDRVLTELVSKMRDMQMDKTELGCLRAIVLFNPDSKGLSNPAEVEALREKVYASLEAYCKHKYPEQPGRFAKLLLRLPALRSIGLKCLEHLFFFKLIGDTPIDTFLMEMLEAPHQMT
As to the kind of experiment: Co-transfection assay (LXRE luciferase reporter), LXRβ. The class given is cell-based. As to conditions: for EC50: CV-1 cells transfected with pCMX-hLXRβ and LXREx1-Tk-Luciferase, 20 hours incubation; for Emax: LXRβ co-transfection, relative to high control 1-(2,4-difluorobenzyl)-2-oxo-6-(4-phenoxyphenyl)-4-(trifluoromethyl)-1,2-dihydropyridine-3-carbonitrile, read-out: % Efficacy. Summed up:
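Luciferase signal from an LXREx1-Tk reporter was measured after transfected CV-1 cells (full-length hLXRβ, endogenous RXR) were treated with compounds for 20 h at 37 °C, ≤0.5% DMSO. EC50 came from four-parameter fits of 11-point ½-log curves; % efficacy versus a reference agonist maximum.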
(In general: In a reporter assay the amount or activity of a reporter protein is the signal.)

Turning to `Cc1nc(-c2cc(-c3cccc(S(C)(=O)=O)c3)ccc2-n2cc(C(F)(F)F)nc2C)c(-c2ccc(OC(CF)CF)c(F)c2)o1` [Example 406, 5-(4-(1,3-difluoropropan-2-yloxy)-3-fluorophenyl)-2-methyl-4-(4-(2-methyl-4-(trifluoromethyl)-1H-imidazol-1-yl)-3′-(methylsulfonyl)biphenyl-3-yl)oxazole], the EC50 (commonly the concentration needed to bring the measured effect to its halfway point) is 181 nM and the Emax was 68%.

Regarding `Cc1nc(C(F)(F)F)cn1-c1ccc(-c2cccc(S(C)(=O)=O)c2)cc1-c1nc(C(F)(F)F)cn1-c1ccc(Cl)nc1` [Example 642, 2-chloro-5-(2-(4-(2-methyl-4-(trifluoromethyl)-1H-imidazol-1-yl)-3′-(methylsulfonyl)biphenyl-3-yl)-4-(trifluoromethyl)-1H-imidazol-1-yl)pyridine], the concentration for a half-maximal effect (EC50) came out at 1150 nM and the Emax is 32%.

Turning to `Cc1nc(C(F)F)c(C)n1-c1ccc(-c2cccc(S(C)(=O)=O)c2)cc1-n1nncc1-c1ccc(OC(F)(F)F)cc1` [Example 232, 1-(4-(4-(difluoromethyl)-2,5-dimethyl-1H-imidazol-1-yl)-3′-(methylsulfonyl)-[1,1′-biphenyl]-3-yl)-5-(4-(trifluoromethoxy)phenyl)-1H-1,2,3-triazole], a half-maximal response (EC50) required 1970 nM and the Emax came out at 74%.

For the molecule `COc1ccc(-c2cnnn2-c2cc(-c3cccc(S(C)(=O)=O)c3)ccc2-n2cc(C(F)(F)F)nc2C)c(OC)c1` [Example 93, 5-[2,4-bis(methyloxy)phenyl]-1-{3′-(methylsulfonyl)-4-[2-methyl-4-(trifluoromethyl)-1H-imidazol-1-yl]biphenyl-3-yl}-1H-1,2,3-triazole], the EC50 is 2150 nM and the Emax was 40%.

For the molecule `Cc1nc(-c2cc(-c3ccc(CCO)c(S(C)(=O)=O)c3)ccc2-n2cc(C(F)(F)F)nc2C)c(-c2ccc(OC(F)(F)F)cc2)o1` [Example 523, 2-(4′-(2-methyl-4-(trifluoromethyl)-1H-imidazol-1-yl)-3′-(2-methyl-5-(4-(trifluoromethoxy)phenyl)oxazol-4-yl)-3-(methylsulfonyl)-[1,1′-biphenyl]-4-yl)ethanol], the concentration for a half-maximal effect (EC50) was determined as 67 nM and the Emax worked out at 102%.

In the case of `COc1ncc(-c2oc(C)nc2-c2cc(-c3cc(F)c(CO)c(S(C)(=O)=O)c3)ccc2-n2cc(Cl)nc2C)cc1F` [Example 465, (4′-(4-chloro-2-methyl-1H-imidazol-1-yl)-3-fluoro-3′-(5-(5-fluoro-6-methoxypyridin-3-yl)-2-methyloxazol-4-yl)-5-(methylsulfonyl)biphenyl-4-yl)methanol], the EC50 is 240 nM and the Emax is 45%.

Consider `CS(=O)(=O)c1cccc(-c2cc(F)c(-n3cnc(C(F)(F)F)c3)c(-n3nncc3-c3ccc(OC(F)(F)F)cc3)c2)c1` [Example 188, 1-{5-fluoro-3′-(methylsulfonyl)-4-[4-(trifluoromethyl)-1H-imidazol-1-yl]biphenyl-3-yl}-5-{4-[(trifluoromethyl)oxy]phenyl}-1H-1,2,3-triazole], for which the EC50 worked out at 1750 nM and the Emax came out at 89%.

For `Cc1nc(C(F)(F)F)cn1-c1ccc(-c2ccc(CCO)c(S(C)(=O)=O)c2)cc1-n1nncc1-c1ccc(OC(F)(F)F)cc1` [Example 236, 2-(4′-(2-methyl-4-(trifluoromethyl)-1H-imidazol-1-yl)-3-(methylsulfonyl)-3′-(5-(4-(trifluoromethoxy)phenyl)-1H-1,2,3-triazol-1-yl)-[1,1′-biphenyl]-4-yl)ethanol], the 50% effective concentration (EC50) was determined as 198 nM and the Emax turned out to be 89%.

In the case of `CS(=O)(=O)c1cccc(-c2ccc(-n3cc(C(F)(F)F)nc3Cl)c(-n3nncc3-c3ccc(Cl)cc3Cl)c2)c1` [Example 143, 1-{4-[2-chloro-4-(trifluoromethyl)-1H-imidazol-1-yl]-3′-(methylsulfonyl)biphenyl-3-yl}-5-(2,4-dichlorophenyl)-1H-1,2,3-triazole], the 50% effective concentration (EC50) was found to be 942 nM and the Emax was determined as 98%.

`Cc1nc(-c2cc(-c3cccc(S(C)(=O)=O)c3)ccc2-n2cc(C(F)(F)F)nc2C)c(-c2cc(Cl)ccn2)o1` [Example 434, 5-(4-chloropyridin-2-yl)-2-methyl-4-(4-(2-methyl-4-(trifluoromethyl)-1H-imidazol-1-yl)-3′-(methylsulfonyl)biphenyl-3-yl)oxazole]: the EC50 came out at 462 nM and the Emax turned out to be 65%.

Consider `Cc1nc(-c2ccccc2OC(F)(F)F)c(-c2cc(-c3cccc(S(C)(=O)=O)c3)ccc2-n2cc(C(F)(F)F)nc2C)o1` [Example 631, 2-methyl-5-(4-(2-methyl-4-(trifluoromethyl)-1H-imidazol-1-yl)-3′-(methylsulfonyl)-[1,1′-biphenyl]-3-yl)-4-(2-(trifluoromethoxy)phenyl)oxazole], for which the response was half-maximal at 216 nM (EC50) and the Emax came to 43%.

`Cc1nc(-c2cc(-c3cc(F)c(CO)c(S(C)(=O)=O)c3)ccc2-n2cc(C(F)(F)F)nc2C)c(-c2ccc(OC(F)(F)C(F)F)cc2)o1` [Example 544, (3-fluoro-4′-(2-methyl-4-(trifluoromethyl)-1H-imidazol-1-yl)-3′-(2-methyl-5-(4-(1,1,2,2-tetrafluoroethoxy)phenyl)oxazol-4-yl)-5-(methylsulfonyl)-[1,1′-biphenyl]-4-yl)methanol]: the EC50 is 35 nM and the Emax was found to be 41%.

As to `Cc1nc(C(F)(F)F)c(Cl)n1-c1ccc(-c2cc(F)c(CO)c(S(C)(=O)=O)c2)cc1-n1nncc1-c1ccc(OC(F)(F)F)cc1` [Example 1, {4′-[5-chloro-2-methyl-4-(trifluoromethyl)-1H-imidazol-1-yl]-3-fluoro-5-(methylsulfonyl)-3′-(5-{4-[(trifluoromethyl)oxy]phenyl}-1H-1,2,3-triazol-1-yl)biphenyl-4-yl}methanol], a half-maximal response (EC50) required 40 nM and the Emax worked out at 116%.

Regarding `CCc1nc(-c2cc(-c3cc(F)c(CO)c(S(C)(=O)=O)c3)ccc2-n2cc(C(F)(F)F)nc2C)c(-c2ccc(OC(F)(F)F)cc2)o1` [Example 556, (3′-(2-ethyl-5-(4-(trifluoromethoxy)phenyl)oxazol-4-yl)-3-fluoro-4′-(2-methyl-4-(trifluoromethyl)-1H-imidazol-1-yl)-5-(methylsulfonyl)-[1,1′-biphenyl]-4-yl)methanol], the EC50 came to 13 nM and the Emax was determined as 100%.

Take `Cc1nc(-c2cc(-c3cccc(S(C)(=O)=O)c3)ccc2-n2cc(C(F)(F)F)nc2C)c(-c2ccccc2OC(F)F)o1` [Example 547, 5-(2-(difluoromethoxy)phenyl)-2-methyl-4-(4-(2-methyl-4-(trifluoromethyl)-1H-imidazol-1-yl)-3′-(methylsulfonyl)-[1,1′-biphenyl]-3-yl)oxazole]: the EC50 is 474 nM and the Emax is 39%.

Take `COc1ccc(-c2ccc(-n3cc(C(F)(F)F)nc3C)c(-n3nncc3-c3ccc(OC(F)(F)F)cc3)c2)cc1S(C)(=O)=O` [Example 94, 1-{4′-(methyloxy)-3′-(methylsulfonyl)-4-[2-methyl-4-(trifluoromethyl)-1H-imidazol-1-yl]biphenyl-3-yl}-5-{4-[(trifluoromethyl)oxy]phenyl}-1H-1,2,3-triazole]: a half-maximal response (EC50) required 2340 nM and the Emax came to 71%.

As for `Cc1nc(C(F)(F)F)cn1-c1ccc(-c2cccc(C(C)(C)C(N)=O)c2)cc1-n1nncc1Cc1ccc(Cl)cc1` [Example 119, 2-(3′-{5-[(4-chlorophenyl)methyl]-1H-1,2,3-triazol-1-yl}-4′-[2-methyl-4-(trifluoromethyl)-1H-imidazol-1-yl]biphenyl-3-yl)-2-methylpropanamide], the 50% effective concentration (EC50) worked out at 820 nM and the Emax was determined as 85%.

`COC(=O)c1ccc(-c2cnnn2-c2cc(-c3cccc(S(C)(=O)=O)c3)ccc2-n2cc(C(F)(F)F)nc2C)cc1` [Example 82, methyl 4-(1-{3′-(methylsulfonyl)-4-[2-methyl-4-(trifluoromethyl)-1H-imidazol-1-yl]biphenyl-3-yl}-1H-1,2,3-triazol-5-yl)benzoate]: a half-maximal effect (EC50) was put at 260 nM and the Emax was determined as 89%.

For the origin of these results see US9834542B2, “LXR modulators” (BRISTOL-MYERS SQUIBB COMPANY, priority 2013, dated 2017).
